From patent US7488733B2, “6-arylamino-5-cyano-4-pyrimidinones as pde9a inhibitors” (Boehringer Ingelheim International GmbH, priority 2003, dated 2009)

Key:
PDE1C = target: T1, PDE1C (Homo sapiens, UniProt Q14123); assay: PDE1C inhibition; format: biochemical; conditions: human isoenzyme
T1 construct: made in house; host or cells: Sf9 insect cells, pFASTBAC baculovirus
Source text: (§1) Recombinant PDE1C (GenBank/EMBL Accession Number: NM_005020, Loughney et al. J. Biol. Chem. 1996 271, 796-806), PDE2A (GenBank/EMBL Accession Number: NM_002599, Rosman et al. Gene 1997 191, 89-95), PDE3B (GenBank/EMBL Accession Number: NM_000922, Miki et al. Genomics 1996, 36, 476-485), PDE4B (GenBank/EMBL Accession Number: NM_002600, Obernolte et al. Gene. 1993, 129, 239-247), PDE5A (GenBank/EMBL Accession Number: NM_001083, Loughney et al. Gene 1998, 216, 139-147), PDE7B (GenBank/EMBL Accession Number: NM_018945, Hetman et al. Proc. Natl. Acad. Sci. U.S.A. 2000, 97, 472-476), PDE8A (GenBank/EMBL Accession Number: AF—056490, Fisher et al. Biochem. Biophys. Res. Commun. […]
(§2) The test substances are dissolved in 100% DMSO and serially diluted to determine their in vitro effect on PDE 9A. […] The plates are then measured for 30 s per well in a Microbeta scintillation counter (Wallac Inc., Atlanta, Ga.). IC50 values are determined from the graphical plot of the substance concentration versus the percentage inhibition.
(§3) The in vitro effect of test substances on recombinant PDE3B, PDE4B, PDE7B, PDE8A, PDE10A and PDE11A is determined in accordance with the assay protocol described above for PDE 9A with the following adaptations: [5′,8-^3H] adenosine 3′,5′-cyclic phosphate (1 μCi/μL; Amersham Pharmacia Biotech., Piscataway, N.J.) is used as substrate. […]

PDE2A = target: T2, PDE2A (Homo sapiens, UniProt O00408); assay: PDE2A inhibition; format: biochemical; conditions: human isoenzyme
T2 construct: made in house; host or cells: Sf9 insect cells, pFASTBAC baculovirus
T2 sequence (O00408 whole entry): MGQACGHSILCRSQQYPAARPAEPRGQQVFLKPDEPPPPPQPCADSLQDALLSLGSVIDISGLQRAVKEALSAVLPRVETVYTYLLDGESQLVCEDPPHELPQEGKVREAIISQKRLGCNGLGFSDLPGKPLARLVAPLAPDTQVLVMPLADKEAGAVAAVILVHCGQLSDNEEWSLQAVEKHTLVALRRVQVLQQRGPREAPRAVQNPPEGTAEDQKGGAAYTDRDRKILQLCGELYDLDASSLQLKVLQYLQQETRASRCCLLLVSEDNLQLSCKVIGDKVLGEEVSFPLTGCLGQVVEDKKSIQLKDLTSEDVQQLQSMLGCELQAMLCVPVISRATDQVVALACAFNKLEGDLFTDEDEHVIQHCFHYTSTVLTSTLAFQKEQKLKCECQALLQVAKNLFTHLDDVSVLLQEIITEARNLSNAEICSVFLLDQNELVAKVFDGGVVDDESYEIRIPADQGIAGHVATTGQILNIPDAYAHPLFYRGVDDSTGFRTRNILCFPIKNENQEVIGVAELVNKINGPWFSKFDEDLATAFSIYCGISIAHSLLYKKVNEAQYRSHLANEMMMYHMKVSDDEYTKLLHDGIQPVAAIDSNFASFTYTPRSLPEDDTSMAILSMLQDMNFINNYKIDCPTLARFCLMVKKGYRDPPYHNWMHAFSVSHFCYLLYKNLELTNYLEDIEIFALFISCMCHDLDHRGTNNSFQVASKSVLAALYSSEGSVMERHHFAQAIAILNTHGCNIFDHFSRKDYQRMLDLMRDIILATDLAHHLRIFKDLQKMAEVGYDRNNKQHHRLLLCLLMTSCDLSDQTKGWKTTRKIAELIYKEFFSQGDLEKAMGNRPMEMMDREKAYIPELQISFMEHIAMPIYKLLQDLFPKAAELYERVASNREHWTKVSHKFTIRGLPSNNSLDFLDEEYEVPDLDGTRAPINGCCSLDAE
Source text: as §1, §2, §3

PDE3B = target: T3, PDE3B (Homo sapiens, UniProt Q13370); assay: PDE3B inhibition; format: biochemical; conditions: human isoenzyme
T3 construct: made in house; host or cells: Sf9 insect cells, pFASTBAC baculovirus
T3 sequence (Q13370 whole entry): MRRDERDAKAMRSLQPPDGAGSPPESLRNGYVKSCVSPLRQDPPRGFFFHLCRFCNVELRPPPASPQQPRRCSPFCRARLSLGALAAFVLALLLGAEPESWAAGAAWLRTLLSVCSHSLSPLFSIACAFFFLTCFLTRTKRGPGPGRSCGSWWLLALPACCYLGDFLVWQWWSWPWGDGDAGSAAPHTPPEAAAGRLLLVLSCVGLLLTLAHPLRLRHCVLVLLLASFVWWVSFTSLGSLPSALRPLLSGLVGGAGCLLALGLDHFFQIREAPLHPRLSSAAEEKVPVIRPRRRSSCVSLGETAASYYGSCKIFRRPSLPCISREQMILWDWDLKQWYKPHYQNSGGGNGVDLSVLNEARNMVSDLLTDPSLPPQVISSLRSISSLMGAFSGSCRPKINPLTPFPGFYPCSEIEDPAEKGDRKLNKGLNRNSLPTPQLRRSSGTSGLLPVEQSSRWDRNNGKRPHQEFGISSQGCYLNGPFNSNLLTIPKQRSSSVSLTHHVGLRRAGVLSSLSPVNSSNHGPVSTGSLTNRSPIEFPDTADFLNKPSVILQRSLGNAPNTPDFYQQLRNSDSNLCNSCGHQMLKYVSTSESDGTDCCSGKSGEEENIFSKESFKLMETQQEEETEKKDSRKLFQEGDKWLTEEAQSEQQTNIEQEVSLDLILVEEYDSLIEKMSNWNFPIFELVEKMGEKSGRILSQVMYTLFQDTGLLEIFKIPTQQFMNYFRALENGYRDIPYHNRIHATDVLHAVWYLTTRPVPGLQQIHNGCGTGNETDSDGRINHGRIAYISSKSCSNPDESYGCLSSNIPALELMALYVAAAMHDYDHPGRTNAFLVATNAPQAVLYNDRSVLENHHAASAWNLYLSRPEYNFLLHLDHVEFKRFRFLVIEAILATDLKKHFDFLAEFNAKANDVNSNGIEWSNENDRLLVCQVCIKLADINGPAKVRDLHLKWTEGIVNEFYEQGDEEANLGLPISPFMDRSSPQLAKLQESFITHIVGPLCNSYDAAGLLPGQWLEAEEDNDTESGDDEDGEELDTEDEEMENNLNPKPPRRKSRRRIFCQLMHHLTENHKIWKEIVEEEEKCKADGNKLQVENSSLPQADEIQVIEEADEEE
Source text: as §1, §2, §3

PDE4B = PDE4B (Homo sapiens, UniProt Q07343); assay: PDE4B inhibition; format: biochemical; conditions: human isoenzyme
PDE4B, sequence (Q07343 212-736 limits assumed): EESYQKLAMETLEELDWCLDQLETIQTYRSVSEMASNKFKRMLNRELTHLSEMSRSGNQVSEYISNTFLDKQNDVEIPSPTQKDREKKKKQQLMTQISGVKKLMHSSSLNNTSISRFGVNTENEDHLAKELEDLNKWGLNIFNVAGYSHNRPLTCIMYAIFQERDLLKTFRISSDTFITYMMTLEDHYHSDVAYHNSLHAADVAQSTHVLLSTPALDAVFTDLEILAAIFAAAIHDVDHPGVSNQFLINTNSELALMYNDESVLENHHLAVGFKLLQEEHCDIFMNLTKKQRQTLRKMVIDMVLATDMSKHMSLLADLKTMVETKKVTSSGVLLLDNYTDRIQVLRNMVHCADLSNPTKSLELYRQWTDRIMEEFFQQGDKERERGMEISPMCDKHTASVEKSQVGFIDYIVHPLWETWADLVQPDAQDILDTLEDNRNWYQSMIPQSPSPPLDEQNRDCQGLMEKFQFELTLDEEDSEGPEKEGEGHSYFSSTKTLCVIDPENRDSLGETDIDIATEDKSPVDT
Source text: as §1, §2, §3

PDE5A = target: T4, PDE5A (Homo sapiens, UniProt O76074); assay: PDE5A inhibition; format: biochemical; conditions: human isoenzyme
T4 construct: made in house; host or cells: Sf9 insect cells, pFASTBAC baculovirus
Source text: as §1, §2, §3

PDE7A = target: T5, PDE7A (Homo sapiens, UniProt Q9NP56); assay: PDE7A inhibition; format: biochemical; conditions: human isoenzyme
T5 construct: made in house; host or cells: Sf9 insect cells, pFASTBAC baculovirus
T5 sequence (Q9NP56 whole entry): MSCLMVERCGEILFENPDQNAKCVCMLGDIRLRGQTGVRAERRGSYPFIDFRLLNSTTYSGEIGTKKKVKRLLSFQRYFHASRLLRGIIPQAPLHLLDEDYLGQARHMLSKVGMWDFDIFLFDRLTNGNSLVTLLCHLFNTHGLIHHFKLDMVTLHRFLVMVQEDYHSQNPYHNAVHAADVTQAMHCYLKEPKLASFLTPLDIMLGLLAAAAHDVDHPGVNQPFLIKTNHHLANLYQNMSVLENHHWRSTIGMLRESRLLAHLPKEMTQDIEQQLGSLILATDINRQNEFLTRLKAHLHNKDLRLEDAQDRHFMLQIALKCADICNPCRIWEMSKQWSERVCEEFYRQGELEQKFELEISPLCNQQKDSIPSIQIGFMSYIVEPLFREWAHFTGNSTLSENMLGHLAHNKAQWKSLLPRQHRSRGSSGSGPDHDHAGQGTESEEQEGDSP

PDE8A = target: T6, PDE8A (Homo sapiens, UniProt O60658); assay: PDE8A inhibition; format: biochemical; conditions: human isoenzyme
T6 construct: made in house; host or cells: Sf9 insect cells, pFASTBAC baculovirus
Source text: as §1, §2, §3

PDE10A = target: T7, PDE10A (Homo sapiens, UniProt Q9Y233); assay: PDE10A inhibition; format: biochemical; conditions: human isoenzyme
T7 construct: made in house; host or cells: Sf9 insect cells, pFASTBAC baculovirus
T7 sequence (Q9Y233 1-779 isoform Q9Y233-1): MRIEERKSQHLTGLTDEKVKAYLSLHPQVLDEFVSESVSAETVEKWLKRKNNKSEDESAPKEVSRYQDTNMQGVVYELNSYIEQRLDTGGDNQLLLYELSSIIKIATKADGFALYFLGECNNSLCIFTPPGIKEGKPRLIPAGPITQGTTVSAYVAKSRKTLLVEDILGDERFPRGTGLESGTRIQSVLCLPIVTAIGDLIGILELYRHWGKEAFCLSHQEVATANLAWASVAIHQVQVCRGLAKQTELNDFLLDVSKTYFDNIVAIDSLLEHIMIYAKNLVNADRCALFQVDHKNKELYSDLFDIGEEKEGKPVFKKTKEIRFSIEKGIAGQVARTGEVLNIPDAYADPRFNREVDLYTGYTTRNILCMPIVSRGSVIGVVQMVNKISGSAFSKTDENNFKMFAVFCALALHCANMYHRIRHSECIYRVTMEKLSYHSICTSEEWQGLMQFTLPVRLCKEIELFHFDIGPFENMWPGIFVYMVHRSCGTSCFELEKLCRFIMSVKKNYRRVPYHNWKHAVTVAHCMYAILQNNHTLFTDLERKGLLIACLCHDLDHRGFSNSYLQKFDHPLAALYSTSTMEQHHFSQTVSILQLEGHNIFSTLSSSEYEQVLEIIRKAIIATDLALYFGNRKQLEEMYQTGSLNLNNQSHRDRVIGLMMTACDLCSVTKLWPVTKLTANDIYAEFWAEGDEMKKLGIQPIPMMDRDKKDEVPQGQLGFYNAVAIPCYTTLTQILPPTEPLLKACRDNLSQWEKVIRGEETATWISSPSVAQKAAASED
Source text: as §1, §2, §3

PDE9A [1] = target: T8, PDE9A (Homo sapiens, UniProt O76083); conditions: concentrations of up to 100 μM; cited from earlier work
T8 sequence (O76083 whole entry): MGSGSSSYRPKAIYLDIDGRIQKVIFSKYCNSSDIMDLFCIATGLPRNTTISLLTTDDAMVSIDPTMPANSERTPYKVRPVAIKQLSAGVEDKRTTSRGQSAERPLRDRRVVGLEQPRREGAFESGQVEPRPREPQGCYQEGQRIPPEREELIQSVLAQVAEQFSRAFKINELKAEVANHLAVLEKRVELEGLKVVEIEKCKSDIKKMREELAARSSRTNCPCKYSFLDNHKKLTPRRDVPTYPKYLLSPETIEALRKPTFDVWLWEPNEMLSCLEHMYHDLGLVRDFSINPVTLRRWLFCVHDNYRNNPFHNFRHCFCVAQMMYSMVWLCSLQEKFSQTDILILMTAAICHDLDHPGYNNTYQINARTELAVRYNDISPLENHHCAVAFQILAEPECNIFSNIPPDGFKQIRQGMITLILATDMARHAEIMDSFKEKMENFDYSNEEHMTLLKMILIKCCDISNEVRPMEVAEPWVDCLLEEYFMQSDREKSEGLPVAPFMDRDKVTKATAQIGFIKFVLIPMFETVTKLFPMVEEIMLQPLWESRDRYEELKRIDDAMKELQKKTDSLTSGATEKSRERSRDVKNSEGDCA

PDE9A [2] = target: T8, PDE9A; assay: PDE9A inhibition (scintillation proximity assay); format: biochemical; set-up: made in house; host or cells: Sf9 insect cells, pFASTBAC baculovirus; conditions: recombinant PDE9A, Table 2; read-out: PDE9A-inhibiting effect IC50
Procedure: The test substances are dissolved in 100% DMSO and serially diluted to determine their in vitro effect on PDE 9A. […] 2 μL portions of the diluted substance solutions are introduced into the wells of microtiter plates (Isoplate; Wallac Inc., Atlanta, Ga.). Then 50 μL of a dilution of the PDE9A preparation described above are added. The dilution of the PDE9A preparation is chosen so that less than 70% of the substrate is converted during the subsequent incubation (typical dilution: 1:10 000; dilution buffer: 50 mM Tris/HCl pH 7.5, 8.3 mM MgCl2, 1.7 mM EDTA, 0.2% BSA). The substrate, [8-^3H] guanosine 3′,5′-cyclic phosphate (1 μCi/μL; Amersham Pharmacia Biotech., Piscataway, N.J.) is diluted 1:2000 with assay buffer (50 mM Tris/HCl pH 7.5, 8.3 mM MgCl2, 1.7 mM EDTA) to a concentration of 0.0005 μCi/μL. The enzyme reaction is finally started by adding 50 μL (0.025 μCi) of the diluted substrate. […] Immediately thereafter, 25 μL of a suspension containing 18 mg/mL Yttrium Scintillation Proximity Beads (Amersham Pharmacia Biotech., Piscataway, N.J.) are added. The microtiter plates are sealed with a film and left to stand at room temperature for 60 min. The plates are then measured for 30 s per well in a Microbeta scintillation counter (Wallac Inc., Atlanta, Ga.). IC50 values are determined from the graphical plot of the substance concentration versus the percentage inhibition.

Murine PDE9A = target: T9, Murine PDE9A (Mus musculus, UniProt O70628); conditions: concentrations below 200 μM; cited from earlier work
T9 sequence (O70628 1-534): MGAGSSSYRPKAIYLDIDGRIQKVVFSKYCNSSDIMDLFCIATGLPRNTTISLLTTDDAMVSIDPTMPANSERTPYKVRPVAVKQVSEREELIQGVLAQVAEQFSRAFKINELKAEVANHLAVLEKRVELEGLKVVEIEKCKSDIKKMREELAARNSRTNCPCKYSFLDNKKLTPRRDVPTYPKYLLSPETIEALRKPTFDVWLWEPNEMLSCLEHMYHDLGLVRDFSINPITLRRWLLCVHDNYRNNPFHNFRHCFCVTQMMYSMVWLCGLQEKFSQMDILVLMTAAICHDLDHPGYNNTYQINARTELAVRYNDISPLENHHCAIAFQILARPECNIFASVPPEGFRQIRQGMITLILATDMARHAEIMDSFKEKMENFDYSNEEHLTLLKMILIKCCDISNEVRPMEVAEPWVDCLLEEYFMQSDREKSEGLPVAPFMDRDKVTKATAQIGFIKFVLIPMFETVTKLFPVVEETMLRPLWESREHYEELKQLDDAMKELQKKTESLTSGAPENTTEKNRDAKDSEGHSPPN

With `Cc1ccncc1Nc1nc(CC2CCCCC2)[nH]c(=O)c1C#N` [Example 3, 2-(Cyclohexylmethyl)-4-[(4-methyl-3-pyridinyl)amino]-6-oxo-1,6-dihydro-5-pyrimidinecarbonitrile] the IC50 (PDE1C) was over 4000 nM, the IC50 (PDE2A) was over 4000 nM and the IC50 (PDE3B) was over 4000 nM. For the same compound, the IC50 (PDE4B) was over 4000 nM, the IC50 (PDE5A) was 1400 nM and the IC50 (PDE7A) was over 4000 nM. It also gave an IC50 (PDE8A) of over 4000 nM and an IC50 (PDE10A) of over 4000 nM.

For `CC(=O)Nc1ccc(-c2c[nH]c(=O)cn2)cc1` [SKF94120], the “inhibition of isolated human PDE9A” value (PDE9A [1]) is given as “no inhibition”.

For `COc1ccc(C2CNC(=O)C2)cc1OC1CCCC1` (stereo not drawn) [rolipram], the “inhibition of isolated human PDE9A” value (PDE9A [1]) is listed as “no inhibition”.

In the case of `Cc1c(F)cccc1Nc1nc(CC2CCCC2)[nH]c(=O)c1C#N` [Example 7, 2-(Cyclopentylmethyl)-4-[(3-fluoro-2-methylphenyl)amino]-6-oxo-1,6-dihydro-5-pyrimidinecarbonitrile], the IC50 (PDE9A [2]) is reported as 54 nM.

For `OCCN(CCO)c1nc(N2CCCCC2)c2nc(N(CCO)CCO)nc(N3CCCCC3)c2n1` [dipyridamole], the “inhibition of isolated human PDE9A” value (PDE9A [1]) is given as “no inhibition”.

`CCC(C)Cc1nc(Nc2ccccc2C)c(C#N)c(=O)[nH]1` (stereo not drawn) [Example 14, 2-(2-Methylbutyl)-4-[(2-methylphenyl)amino]-6-oxo-1,6-dihydro-5-pyrimidinecarbonitrile] gave an IC50 (PDE9A [2]) of 75 nM.

Work on `N#Cc1c(Nc2ccc(F)cc2)nc(CC2CCCC2)[nH]c1=O` [Example 1, 2-(Cyclopentylmethyl)-4-[(fluorophenyl)amino]6-oxo-1,6-dihydro-5-pyrimidinecarbonitrile] yielded an IC50 (PDE9A [2]) of 75 nM.

With `Cc1ccc(F)cc1Nc1nc(CC2CCCC2)[nH]c(=O)c1C#N` [Example 23] the IC50 (PDE9A [2]) was 87 nM.

For `CC(C)Cn1c(=O)n(C)c(=O)c2[nH]cnc21` [IBMX], the “inhibition of isolated human PDE9A” value (PDE9A [1]) is listed as “no inhibition” and the “inhibition of murine PDE9A” value (Murine PDE9A) is listed as “not inhibited”.

For `CCOC(=O)C1=C[C@]2(CC)CCCN3CCc4c(n1c1ccccc41)[C@@H]32` [vinpocetine], the “inhibition of isolated human PDE9A” value (PDE9A [1]) is listed as “no inhibition”.
